Reference: patent publication US20180334447A1, “2,3,4,5-TETRAHYDROPYRIDIN-6-AMINE DERIVATIVES” (JANSSEN PHARMACEUTICA NV, priority 2015, published 2018)

Legend:
[1] = molecular target: T1, recombinant BACE2 protein (Homo sapiens, UniProt Q9Y5Z0); assay: BACE2 biochemical FRET based assay; conditions: BACE2, 450 minutes at room temperature, pH 5.0; read-out: Biochemical FRET based assay pIC50 (converted)
T1 construct: recombinant BACE2 protein in a final concentration of 0.4 μg/ml
T1 sequence (Q9Y5Z0 63-518): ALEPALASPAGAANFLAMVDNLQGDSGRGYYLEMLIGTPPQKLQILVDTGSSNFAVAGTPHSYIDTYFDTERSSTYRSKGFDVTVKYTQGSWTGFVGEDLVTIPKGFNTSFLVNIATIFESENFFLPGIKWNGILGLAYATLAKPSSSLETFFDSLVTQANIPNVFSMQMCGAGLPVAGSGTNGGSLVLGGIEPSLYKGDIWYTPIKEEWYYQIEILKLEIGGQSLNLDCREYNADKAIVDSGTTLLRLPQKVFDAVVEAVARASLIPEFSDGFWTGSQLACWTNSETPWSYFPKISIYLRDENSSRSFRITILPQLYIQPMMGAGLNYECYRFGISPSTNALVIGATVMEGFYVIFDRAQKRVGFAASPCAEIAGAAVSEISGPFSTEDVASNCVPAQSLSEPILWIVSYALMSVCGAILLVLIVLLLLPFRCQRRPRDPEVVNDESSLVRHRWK
Excerpt: (§1) This assay is a Fluorescence Resonance Energy Transfer Assay (FRET) based assay. The substrate for this assay contains the ‘Swedish’ Lys-Met/Asn-Leu mutation of the amyloid precursor protein (APP) beta-secretase cleavage site. This substrate also contains two fluorophores: (7-methoxycoumarin-4-yl) acetic acid (Mca) is a fluorescent donor with excitation wavelength at 320 nm and emission at 405 nm and 2,4-Dinitrophenyl (Dnp) is a proprietary quencher acceptor. […] Upon cleavage by the beta-secretase, the fluorophore Mca is separated from the quenching group Dnp, restoring the full fluorescence yield of the donor. The increase in fluorescence is linearly related to the rate of proteolysis.
Briefly in a 384-well format recombinant BACE2 protein in a final concentration of 0.4 μg/ml is incubated for 450 minutes at room temperature with 10 μM substrate in incubation buffer (50 mM Citrate buffer pH 5.0, 0.05% PEG, no DMSO) in the absence or presence of compound. Next the amount of proteolysis is directly measured by fluorescence measurement at T=0 and T=450 (excitation at 320 nm and emission at 405 nm). Results are expressed in RFU (Relative Fluorescence Units), as difference between T450 and T0.
(§2) A best-fit curve is fitted by a minimum sum of squares method to the plot of % Controlmin versus compound concentration. From this an IC50 value (inhibitory concentration causing 50% inhibition of activity) can be obtained.

[2] = molecular target: T2, recombinant BACE1 protein (Homo sapiens, UniProt P56817); assay: BACE1 biochemical FRET based assay - Method 1; conditions: BACE1, 120 minutes at room temperature, pH 5.0; read-out: Biochemical FRET based assay - Method 1 pIC50 (converted)
T2 construct: recombinant BACE1 protein in a final concentration of 1 μg/ml
Excerpt: as §1, with “this assay is an APP derived 13 amino acids peptide that contains the” for “this assay contains the”, “cleavage by BACE1, the fluorophore” for “cleavage by the beta-secretase, the fluorophore”
Briefly in a 384-well format recombinant BACE1 protein in a final concentration of 1 μg/ml is incubated for 120 minutes at room temperature with 10 μm substrate in incubation buffer (40 mM Citrate buffer pH 5.0, 0.04% PEG, 4% DMSO) in the absence or presence of compound. Next the amount of proteolysis is directly measured by fluorescence measurement at T=0 and T=120 (excitation at 320 nm and emission at 405 nm). Results are expressed in RFU (Relative Fluorescence Units), as difference between T120 and T0.
as §2

[3] = test system: Abeta 1-37, Abeta 1-38, Abeta 1-40 and Abeta 1-42 in CSF; assay: Pharmacology in the Beagle dog: beta-amyloid profile in cerebrospinal fluid (CSF) after a single dose; type: in vivo; conditions: Canis lupus familiaris, single dose 0.31 mg/kg, 8 h post dosing, read-out: % Decrease in Abeta 1-42 at 8 h post dosing compared to own baseline
Description: Test compounds were tested to evaluate the effect on the beta-amyloid profile in cerebrospinal fluid (CSF) of dogs after a single dose, in combination with pharmacokinetic (PK) follow up and limited safety evaluation.
For each of compound 20, 21, 22 or 41, four beagle dogs (2 males, 2 females) were dosed with vehicle (1 ml/kg of an aqueous solution of 20% cyclodextrin) and 12 beagle dogs (2 males and 2 females per dosage group) were dosed with test compounds as follows:
In the case of compounds 39, 33 and 31, two beagle dogs (1 male, 1 female) were dosed with vehicle (1 ml/kg of an aqueous solution of 20% cyclodextrin) and 4 beagle dogs (2 males and 2 females) were dosed with test compound […] (0.31 mg/kg in 0.31 mg/ml of an aqueous 20% cyclodextrin solution) on an empty stomach.
Eight hours after dosing the animals got access to their regular meal for 30 minutes. Blood was taken for PK follow up (0.5, 1, 2, 4, 8, 25 and 49 hours) and serum samples for biochemistry were taken before and at 8 and 25 h after dosing. The CSF samples were used for measurement of Abeta 1-37, Abeta 1-38, Abeta 1-40 and Abeta 1-42.

[4] = test system: Abeta 1-42 produced and secreted into the medium of human neuroblastoma SKNBE2 cells; assay: Cellular αLisa assay in SKNBE2 cells, Abeta 42; type: cell-based; conditions: Homo sapiens, SKNBE2, 18 h, SKNBE2 cells expressing hAPP695, incubated for 18 hours; read-out: Cellular αLisa assay in SKNBE2 cells Abeta 42 pIC50 (converted)
Description: In two αLisa assays the levels of Abeta 1-42 produced and secreted into the medium of human neuroblastoma SKNBE2 cells are quantified. The assay is based on the human neuroblastoma SKNBE2 expressing the wild type Amyloid Precursor Protein (hAPP695). The compounds are diluted and added to these cells, incubated for 18 hours and then measurements of Abeta 1-42 are taken. Abeta 1-42 are measured by sandwich αLisa. αLisa is a sandwich assay using biotinylated antibody AbN/25 attached to streptavidin coated beads and antibody cAb42/26 conjugated acceptor beads for the detection of Abeta 1-42 respectively. In the presence of Abeta 1-42, the beads come into close proximity. The excitation of the donor beads provokes the release of singlet oxygen molecules that trigger a cascade of energy transfer in the acceptor beads, resulting in light emission. Light emission is measured after 1 hour incubation (excitation at […] and emission at 615 nm).
as §2

T2 sequence (P56817 46-501): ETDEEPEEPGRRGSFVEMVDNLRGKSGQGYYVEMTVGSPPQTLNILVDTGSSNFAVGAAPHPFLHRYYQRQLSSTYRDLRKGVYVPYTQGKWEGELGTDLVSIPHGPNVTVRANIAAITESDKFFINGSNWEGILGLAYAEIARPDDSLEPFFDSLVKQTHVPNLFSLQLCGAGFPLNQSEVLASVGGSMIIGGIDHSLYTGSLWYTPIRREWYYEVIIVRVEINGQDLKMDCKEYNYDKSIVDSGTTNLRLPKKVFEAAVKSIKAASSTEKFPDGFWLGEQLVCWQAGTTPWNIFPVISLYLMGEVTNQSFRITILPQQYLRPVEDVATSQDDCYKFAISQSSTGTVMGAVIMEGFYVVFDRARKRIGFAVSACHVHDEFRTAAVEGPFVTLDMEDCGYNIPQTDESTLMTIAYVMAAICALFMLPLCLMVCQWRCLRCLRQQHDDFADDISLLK

Row | IC50 [1] | IC50 [2] | melting point | IC50 [4] | Structure (SMILES) | inhibition in vivo at 0.31 mg/kg [3]
1 | 0.0138 µM | 0.00229 µM | 122.96 °C | 0.00148 µM | COc1cnc(C(=O)Nc2ccc(F)c([C@]3(CF)CC[C@@](C)(S(C)(=O)=O)C(N)=N3)c2)cn1 [Compound 2] | 56%
2 | 0.513 µM | 0.0776 µM | 214.97 °C | 0.0288 µM | COc1cnc(C(=O)Nc2ccc(F)c([C@]3(C)CC[C@](C)(S(C)(=O)=O)C(N)=N3)c2)cn1 [Compound 9] | 
